Consider one compound from patent US20260158156A1, “SPECIFIC CONJUGATION OF AN ANTIBODY” (priority 2021, published 2026).

In the test the test system is 8226-2A1 cells. As to the kind of experiment: MTT in vitro cytotoxicity assay of BCMA antibody conjugates, 8226-2A1. The class given is cell-based. The following applies: 15000 cells, 96 h incubation. The method, then:
The cell lines used in the cytotoxicity assays were (1). […] To run the assay, the cells (180 μl, 6000 cells) were added to each well in a 96-well plate and incubated for 24 hours at 37° C. with 5% CO2. Next, the cells were treated with test compounds (20 μl) at various concentrations in appropriate cell culture medium (total volume, 0.2 mL). The control wells contain cells and the medium but lack the test compounds. […] MTT (5 mg/mL) was then added to the wells (20 μl) and the plates were incubated for 1.5 hr at 37° C. The medium was carefully removed and DMSO (180 μl) was added afterward. After it was shaken for 15 min, the absorbance was measured at 490 nm and 570 nm with a reference filter of 620 nm. The inhibition % was calculated according to the following equation: inhibition %=[1−(assay-blank)/(control-blank)]×100.

Turning to `CC(=O)O[C@H]1C(=O)[C@@]2(C)[C@H]([C@H](OC(=O)c3ccccc3)[C@]3(O)C[C@H](OC(=O)[C@H](O)[C@@H](NC(=O)c4ccccc4)c4ccccc4)C(C)=C1C3(C)C)[C@]1(OC(C)=O)CO[C@@H]1C[C@@H]2O` [Paclitaxel], inhibition was half-maximal at 3.71 nM (IC50).
